Measured values reported in ChEMBL document CHEMBL3430912, “GSK Tres Cantos Anti-Kinetoplastid Screening (TCAKS) Data”.
pIC50: −log10 of the molar value.

Columns and labels:
[1] = tested on: Trypanosoma brucei brucei; experiment: GSK_TCAKS: pIC50 Trypanosoma brucei viability assay using fluorescence intensity. Assay plates (1536-well) were prepared by dispensing 25nL of compound solution per well using an Echo acoustic dispenser (Labcyte).; assay type: functional, organism-based; conditions: Lister 427, 2 h
Trypanosoma cruzi [2] = experiment: GSK_TCAKS: pIC50 Trypanosoma cruzi Imaging: Amastigotes/Cell. […] Cells were then washed once with PBS before infection. T. cruzi trypomastigotes, collected at days 5 to 8 after infection from LLC-MK2 parasite infected cultures, were allowed to swim out for 4h at 37C from a centrifuged pellet (2,500 rpm/10 min/room temperature). Trypomastigotes were then collected and counted in a CASY Cell Counter. Trypomastigotes, in supplemented DMEM, were added to H9c2 cultures in a multiplicity of infection of 1 and incubated for 18 h. Cells were washed once with PBS before incubation of the infected H9c2 monolayer with trypsin (Life-Technologies) to detach cells from the flask. Cells were counted in a CASY Cell Counter using a 150 um capillary and their density set at 5 * 10^4 cells per mL in supplemented assay DMEM. Infected H9c2 were dispensed into 384-well poly-lysine coated assay plates at 50uL per well using a Multidrop Combi dispenser. After seeding them, the plates were incubated at 37C, 5% CO2 for 72h. Cultures were then fixed and stained by addition of 50 uL of a solution containing 8% formaldehyde and 4 uM DRAQ5 DNA dye (BioStatus, UK) per well. […] Five images were collected per well for reliable statistical analysis. Automated image analysis was performed with a script developed on Acapella High Content Imaging and Analysis Software (PerkinElmer). Output: number of amastigotes per cell as infection level measurement.; assay type: functional, organism-based, Rattus norvegicus; conditions: H9c2, 4 h
Trypanosoma cruzi [3] = experiment: (§1) GSK_TCAKS: pIC50 Trypanosoma cruzi Imaging: Infected Cells. […] Cells were then washed once with PBS before infection. T. cruzi trypomastigotes, collected at days 5 to 8 after infection from LLC-MK2 parasite infected cultures, were allowed to swim out for 4h at 37C from a centrifuged pellet (2,500 rpm/10 min/room temperature). Trypomastigotes were then collected and counted in a CASY Cell Counter. Trypomastigotes, in supplemented DMEM, were added to H9c2 cultures in a multiplicity of infection of 1 and incubated for 18 h. Cells were washed once with PBS before incubation of the infected H9c2 monolayer with trypsin (Life-Technologies) to detach cells from the flask. Cells were counted in a CASY Cell Counter using a 150 um capillary and their density set at 5 * 10^4 cells per mL in supplemented assay DMEM. Infected H9c2 were dispensed into 384-well poly-lysine coated assay plates at 50uL per well using a Multidrop Combi dispenser. After seeding them, the plates were incubated at 37C, 5% CO2 for 72h. Cultures were then fixed and stained by addition of 50 uL of a solution containing 8% formaldehyde and 4 uM DRAQ5 DNA dye (BioStatus, UK) per well. […] Five images were collected per well for reliable statistical analysis. Automated image analysis was performed with a script developed on Acapella High Content Imaging and Analysis Software (PerkinElmer). Output: percentage of infected cells per well as a second infection marker.; assay type: functional, organism-based, Rattus norvegicus; conditions: H9c2, 4 h
Leishmania donovani [4] = experiment: (§2) GSK_TCAKS: pIC50 Leishmania donovani Imaging: Infected Macrophages. Assay plates (384-well) were prepared by adding 250nL of compound to each well. For single shot assay, the final compound concentration was 5 uM. […] Automated image analysis was performed with a script developed on Acapella High Content Imaging and Analysis Software (PerkinElmer). Output: Percent of infected macrophage cells were reported for each well.; assay type: functional, organism-based, Homo sapiens; conditions: THP-1
[5] = tested on: Trypanosoma brucei brucei; experiment: GSK_TCAKS: pIC50 Trypanosoma brucei viability assay using luminiscence. Assay plates (1536-well) were prepared. T. brucei cultures were harvested and counted in a CASY cell counter. A parasite suspension was prepared at a final concentration of 5 * 10^4 cells/mL in complete HMI9 medium and 6uL was dispensed to all wells containing compounds using a Multidrop Combi dispenser. 6uL of HMI9 media with 0.4% DMSO were dispensed to control columns. Plates were incubated for 24 h at 37C, 5% CO2 then tempered for 10 min at room temperature. ATP content was quantified by adding 4 uL of CellTiter-Glo Reagent (Promega) according to the manufacturer's instructions. Luminescence was measured using a ViewLux.; assay type: functional, organism-based; conditions: Lister 427, CASY
Leishmania donovani [6] = experiment: as §2, with “THP-1 Host” for “Infected”, “THP-1 cell count” for “Percent of infected macrophage cells”; assay type: functional, organism-based, Homo sapiens
Leishmania donovani [7] = experiment: GSK_TCAKS: pIC50 Leishmania donovani viability assay using fluorescence intensity. Assay plates (1536-well) were prepared by adding 30nL per well of compound. For single shot assay, the final compound concentration was 5uM. […] Briefly, eGFP LdBOB axenic amastigotes were harvested, fixed and counted in a CASY cell counter (Roche-Applied Science). A final concentration of 1.5 * 10^5 cells per well were prepared in amastigote media containing 500 U/mL penicillin/streptomycin (Invitrogen) and 6uL was dispensed to each experimental well using a Multidrop Combi dispenser (Thermo Scientific). 6uL of assay media was dispensed to control columns used as reference for 100% compound response. Following incubation for 72 h at 37C, 5% CO2, 2 uL of resazurin was added to each well at a final concentration of 0.5 mM in phosphate buffered saline (PBS) with IGEPAL (Sigma-Aldrich), 0.05% (v/v).; assay type: functional, organism-based
[8] = GSK_TCAKS: pIC50 HepG2 human cell line viability assay using luminiscence. […] Seeding density was checked to ensure that new mono-layers were not more than 50% confluent at the time of harvesting. Cell suspension was added to 500 mL of the same medium at a final density of 1.2 * 10^5 cells/mL. This cell suspension was dispensed (25 uL, 3000 cells per well) into 384-well clear-bottom plates using a Multidrop Combi dispenser. Prior to addition of the cell suspension, the screening compounds (250 nL) were pre-dispensed into the plates with an Echo liquid handler. Plates were incubated for 48 h at 37C, 5% CO2. After incubation, plates equilibrated at room temperature for 30 min before proceeding to develop the luminescent signal. The signal developer, CellTiter-Glo Reagent, was allowed to equilibrate at room temperature for 30 min and added to the plates (25uL per well) using a Multidrop Combi dispenser. Plates were left for 10 min at room temperature for stabilization and then read using a ViewLux.; assay type: toxicity, cell-based
NIH3T3 = experiment: GSK_TCAKS: pIC50 NIH 3T3 cell line viability assay using luminiscence. Tissue culture surface treated assay plates (1536-well) were used. […] The 100% cells survival control was determined exposing the host-cells to a 0.5% DMSO concentration, whereas the 100% toxicity control was achieved by seeding the cells in presence of Amphotericin B at 50uM. Plates were incubated for four days at 37C, 5% CO2. The assay readout was developed by addition of 5uL of CellTiter-Glo Reagent following the manufacturer's instructions. Luminiscence was measured using a ViewLux.; assay type: functional, cell-based; conditions: Mus musculus, NIH3T3, 96 h
Leishmania donovani [9] = experiment: as §2, with “Amastigotes/Macrophages.” for “Infected Macrophages.”, “Average number” for “Percent”, “amastigotes per” for “infected”, “cell” for “cells”; assay type: functional, organism-based, Homo sapiens; conditions: THP-1
Trypanosoma cruzi [10] = experiment: as §1, with “H2C9” for “Trypanosoma cruzi”, “H9c2 Host Cardiomyocytes.” for “Infected Cells.”, “Number” for “percentage”, “H9c2 Host Cardiomyocytes nuclei to determine drug-related cytotoxicity.” for “infected cells per well as a second infection marker.”; assay type: functional, organism-based, Rattus norvegicus; conditions: H9c2, 4 h
[11] = target: Sterol 14-alpha demethylase (Trypanosoma cruzi (strain CL Brener), UniProt Q7Z1V1); experiment: GSK_TCAKS: pIC50 CYP51 from Trypanosoma cruzi.; assay type: functional
Trypanosoma cruzi [12] = experiment: GSK_TCAKS: pIC50 Trypanosoma cruzi viability assay using beta-GAL activity. This assay was run at single shot at 5uM compound concentration per well. The biological reagents consisted of NIH-3T3 host cells and trypomastigotes parasitic cells; both cell types were set to a 3.3 * 10^5 cells/mL dilution in assay DMEM by means of a CASY cell counter device using a 60um capillary. 6 uL of the mixture were dispensed per well (about 1 * 10^3 host-cells and 1 * 10^3 parasites) with a Multidrop Combi dispenser. […] In all wells, the percentage of DMSO never exceeded 0.5%. Plates incubated for four days at 37C, 5% CO2. The substrate used for the assay fluorescence intensity (FLINT) readout was resorufin-beta-D-galactopiranoside (Sigma-Aldrich) at 5uM per well. It was diluted in PBS supplemented with the soft detergent Igepal (Fluka).; assay type: functional, organism-based, Mus musculus; conditions: Tulahuen, NIH3T3

Chain of Sterol 14-alpha demethylase (Q7Z1V1 whole entry): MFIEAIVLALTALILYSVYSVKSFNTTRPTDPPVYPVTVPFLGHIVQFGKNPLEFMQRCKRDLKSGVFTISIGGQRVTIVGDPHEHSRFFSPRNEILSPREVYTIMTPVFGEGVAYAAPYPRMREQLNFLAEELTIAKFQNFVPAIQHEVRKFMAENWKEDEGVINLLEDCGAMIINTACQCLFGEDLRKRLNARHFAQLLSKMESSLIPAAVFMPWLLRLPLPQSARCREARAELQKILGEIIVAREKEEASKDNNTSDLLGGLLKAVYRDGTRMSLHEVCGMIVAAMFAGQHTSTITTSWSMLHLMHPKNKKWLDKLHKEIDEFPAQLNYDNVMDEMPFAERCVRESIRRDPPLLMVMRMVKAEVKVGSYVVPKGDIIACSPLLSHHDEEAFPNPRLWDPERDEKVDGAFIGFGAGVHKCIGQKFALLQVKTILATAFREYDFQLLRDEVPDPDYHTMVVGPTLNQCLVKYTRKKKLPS

Row | SMILES | pIC50 [1] | pIC50 (Trypanosoma cruzi [2]) | pIC50 (Trypanosoma cruzi [3]) | pIC50 (Leishmania donovani [4]) | pIC50 [5] | pIC50 (Leishmania donovani [6]) | pIC50 (Leishmania donovani [7]) | IC50 at 48 h [8] [µM] | pIC50 (NIH3T3) | pIC50 (Leishmania donovani [9]) | pIC50 (Trypanosoma cruzi [10]) | pIC50 [11] | pIC50 (Trypanosoma cruzi [12])
1 | Cc1cccnc1CN1CCN(CCCOc2ccc(-c3ccc(C(N)=O)cc3)cc2)CC1 | 5.00 | 6.40 | 4.70 | 4.50 | < 4.40 | 4.90 | < 4.30 | > 100 | 5.20 | 5.00 | < 4.30 | < 4.00 | 6.20
2 | CC(C(=O)Nc1ccccc1F)N(C)CC(=O)Nc1cccc2ccccc12 (centres undefined) | 4.60 | 6.50 | 6.30 | < 4.30 | < 4.40 | < 4.30 | 4.30 | > 100 | 4.90 | < 4.30 | < 4.30 | 4.80 | 6.40
3 | COc1ccc(C(C)N(C)c2ncc3c(N)nc(N)nc3n2)cc1F (centres undefined) | 4.90 | 7.20 | 6.70 | 4.80 | 5.30 | < 4.30 | 5.40 | > 100 | 4.40 | 4.90 | 4.60 | < 4.00 | 7.10
4 | O=c1ccc2ccc(F)c3c2n1C[C@H]3CN1CCC(NCc2cc3ccccc3o2)CC1 | 6.20 | 6.90 | 6.70 | 4.70 | 5.70 | 4.50 | 4.80 | 39.8 | 4.70 | 4.90 | 4.50 | 4.50 | 6.40
5 | CS(=O)(=O)N[C@H]1CC[C@@H](Oc2cc3cnccc3cc2-c2ccsc2)CC1 | 4.80 | 7.00 | 6.80 | 4.30 | < 4.40 | 4.80 | 4.50 | 63.1 | 4.80 | 4.70 | < 4.30 | 7.60 | 6.90
6 | Cc1c(C(=O)NCCCCn2ccnc2)oc2c(C)cccc12 | 4.70 | 6.30 | 6.30 | < 4.30 | < 4.40 | < 4.30 | < 4.30 | 79.4 | 4.50 | < 4.30 | < 4.30 | 7.00 | 6.65
7 | Cc1ccc2ccc(C(Nc3ccccn3)c3cccnc3)c(O)c2n1 (centres undefined) | 5.30 | 6.70 | 6.70 | 4.90 | 5.40 | < 4.30 | 6.40 | 20 | 5.00 | 5.10 | 4.50 | 7.30 | 6.30
8 | COc1ccccc1C=CCN1C[C@H]2CCC[C@@H](C1)C2(O)c1cccnc1 (some centres undefined) | < 4.40 | 7.40 | 7.40 | < 4.30 | < 4.40 | 4.40 | < 4.30 | > 100 | 4.50 | 4.50 | < 4.30 | 6.90 | 7.30
